Results on three molecules are retold here after ChEMBL document CHEMBL5608259 (J Med Chem, 2024).

Some results are limits rather than exact numbers.

In test [1] the target is T1, Histone-arginine methyltransferase CARM1 (Homo sapiens, UniProt Q86X55).
T1 sequence (Q86X55 whole entry): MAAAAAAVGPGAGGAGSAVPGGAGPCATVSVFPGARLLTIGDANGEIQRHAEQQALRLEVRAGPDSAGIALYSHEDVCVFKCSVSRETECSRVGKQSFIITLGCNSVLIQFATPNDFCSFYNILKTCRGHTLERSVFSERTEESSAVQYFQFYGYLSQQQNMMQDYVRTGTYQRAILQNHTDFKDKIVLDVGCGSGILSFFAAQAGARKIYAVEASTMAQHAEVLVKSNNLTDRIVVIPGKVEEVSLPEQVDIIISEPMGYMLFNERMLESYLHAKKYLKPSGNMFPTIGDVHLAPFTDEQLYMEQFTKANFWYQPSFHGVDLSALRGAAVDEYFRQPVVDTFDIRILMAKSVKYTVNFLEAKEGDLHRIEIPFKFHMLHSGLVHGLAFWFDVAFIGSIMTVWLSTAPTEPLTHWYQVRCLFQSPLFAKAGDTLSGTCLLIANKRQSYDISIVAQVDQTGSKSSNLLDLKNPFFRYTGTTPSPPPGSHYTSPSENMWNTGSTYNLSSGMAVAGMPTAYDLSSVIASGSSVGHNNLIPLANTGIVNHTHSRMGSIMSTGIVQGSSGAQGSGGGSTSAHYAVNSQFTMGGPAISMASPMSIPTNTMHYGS
In words: Inhibition of PRMT4 (unknown origin).

The target of test [2] is Protein arginine N-methyltransferase 5 (Homo sapiens, UniProt O14744). Nature of the test: Inhibition of PRMT5 (unknown origin).
Chain of Protein arginine N-methyltransferase 5 (O14744 whole entry): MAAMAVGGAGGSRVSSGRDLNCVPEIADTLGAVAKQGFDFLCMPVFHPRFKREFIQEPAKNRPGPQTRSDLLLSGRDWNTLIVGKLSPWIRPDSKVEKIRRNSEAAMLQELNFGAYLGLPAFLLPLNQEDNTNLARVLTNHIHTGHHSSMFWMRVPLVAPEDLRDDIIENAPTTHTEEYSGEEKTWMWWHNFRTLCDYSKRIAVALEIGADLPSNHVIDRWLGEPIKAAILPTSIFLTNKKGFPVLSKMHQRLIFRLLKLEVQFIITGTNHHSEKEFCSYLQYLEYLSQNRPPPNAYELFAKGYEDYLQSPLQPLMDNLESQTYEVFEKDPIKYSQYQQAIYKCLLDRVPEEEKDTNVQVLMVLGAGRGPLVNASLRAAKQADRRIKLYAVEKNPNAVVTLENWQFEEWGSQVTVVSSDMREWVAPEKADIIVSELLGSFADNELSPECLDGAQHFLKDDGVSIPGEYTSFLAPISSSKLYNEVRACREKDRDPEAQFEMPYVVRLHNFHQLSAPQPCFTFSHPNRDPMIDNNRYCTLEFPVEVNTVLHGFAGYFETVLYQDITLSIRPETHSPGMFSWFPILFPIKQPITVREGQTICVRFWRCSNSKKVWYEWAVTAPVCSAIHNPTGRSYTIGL
Test [3] concerns the target T2, Protein arginine N-methyltransferase 6 (Homo sapiens, UniProt Q96LA8). In words: Inhibition of PRMT6 (unknown origin).
The target of test [4] is T3, Protein arginine N-methyltransferase 8 (Homo sapiens, UniProt Q9NR22). Nature of the test: Inhibition of PRMT8 (unknown origin).
T3 sequence (Q9NR22 whole entry): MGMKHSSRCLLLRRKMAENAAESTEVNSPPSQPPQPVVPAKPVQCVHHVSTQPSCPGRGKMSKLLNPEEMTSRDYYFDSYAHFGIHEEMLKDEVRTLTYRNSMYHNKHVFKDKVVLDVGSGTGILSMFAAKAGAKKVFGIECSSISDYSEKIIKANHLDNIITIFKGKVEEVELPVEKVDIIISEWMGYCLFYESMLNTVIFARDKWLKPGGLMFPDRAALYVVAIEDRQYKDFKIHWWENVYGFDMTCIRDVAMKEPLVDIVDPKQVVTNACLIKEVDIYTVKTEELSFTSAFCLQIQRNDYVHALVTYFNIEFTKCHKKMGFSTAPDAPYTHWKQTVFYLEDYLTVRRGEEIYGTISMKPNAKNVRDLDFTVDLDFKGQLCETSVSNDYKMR
For test [5], the target named is T4, Protein arginine N-methyltransferase 3 (Homo sapiens, UniProt O60678). In words: Inhibition of PRMT3 (unknown origin).
T4 sequence (O60678 whole entry): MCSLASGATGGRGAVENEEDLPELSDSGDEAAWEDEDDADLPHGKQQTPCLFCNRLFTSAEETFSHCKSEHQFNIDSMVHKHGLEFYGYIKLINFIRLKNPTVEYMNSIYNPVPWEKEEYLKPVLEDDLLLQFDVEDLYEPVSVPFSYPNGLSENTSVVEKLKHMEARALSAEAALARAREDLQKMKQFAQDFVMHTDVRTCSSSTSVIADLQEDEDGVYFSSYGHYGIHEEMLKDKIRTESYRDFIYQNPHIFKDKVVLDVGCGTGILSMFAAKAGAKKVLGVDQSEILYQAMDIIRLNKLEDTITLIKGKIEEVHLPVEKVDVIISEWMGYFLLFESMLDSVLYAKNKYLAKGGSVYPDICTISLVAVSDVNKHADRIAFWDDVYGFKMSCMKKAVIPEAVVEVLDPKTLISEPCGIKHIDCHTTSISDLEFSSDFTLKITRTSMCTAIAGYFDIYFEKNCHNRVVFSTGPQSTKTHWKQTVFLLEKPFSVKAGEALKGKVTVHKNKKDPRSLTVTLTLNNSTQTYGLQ
Test [6] has as its target T5, Protein arginine N-methyltransferase 7 (Homo sapiens, UniProt Q9NVM4).
T5 sequence (Q9NVM4 whole entry): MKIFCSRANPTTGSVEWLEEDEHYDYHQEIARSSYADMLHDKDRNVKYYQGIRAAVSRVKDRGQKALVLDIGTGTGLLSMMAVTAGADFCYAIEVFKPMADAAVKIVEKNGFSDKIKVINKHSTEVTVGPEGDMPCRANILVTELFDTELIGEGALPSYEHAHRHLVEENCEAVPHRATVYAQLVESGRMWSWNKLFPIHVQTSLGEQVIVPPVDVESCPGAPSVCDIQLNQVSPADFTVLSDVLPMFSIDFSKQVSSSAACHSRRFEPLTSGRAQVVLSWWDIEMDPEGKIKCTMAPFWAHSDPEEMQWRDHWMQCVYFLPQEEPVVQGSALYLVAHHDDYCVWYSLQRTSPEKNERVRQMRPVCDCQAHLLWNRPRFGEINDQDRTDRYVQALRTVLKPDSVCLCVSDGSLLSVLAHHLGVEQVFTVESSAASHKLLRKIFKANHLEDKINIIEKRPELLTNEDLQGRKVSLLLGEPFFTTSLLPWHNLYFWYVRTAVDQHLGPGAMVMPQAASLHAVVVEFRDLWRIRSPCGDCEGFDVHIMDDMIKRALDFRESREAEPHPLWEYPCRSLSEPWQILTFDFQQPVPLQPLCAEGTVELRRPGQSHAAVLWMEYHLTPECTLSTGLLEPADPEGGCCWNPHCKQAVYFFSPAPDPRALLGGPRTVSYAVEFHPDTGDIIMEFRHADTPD
Nature of the test: Inhibition of PRMT7 (unknown origin).

The target of test [7] is T2, Protein arginine N-methyltransferase 6. Nature of the test: Inhibition of PRMT6 (unknown origin) incubated for 1 hr in presence of 3H-SAM by topcount plate reader analysis.
Test [8] deals with T4, Protein arginine N-methyltransferase 3. In words: Inhibition of PRMT3 (unknown origin) incubated for 1 hr in presence of 3H-SAM by topcount plate reader analysis.
In test [9] the target is T1, Histone-arginine methyltransferase CARM1. Nature of the test: Inhibition of PRMT4 (unknown origin) incubated for 1 hr in presence of 3H-SAM by topcount plate reader analysis.
Test [10] deals with T5, Protein arginine N-methyltransferase 7. Nature of the test: Inhibition of PRMT7 (unknown origin) incubated for 1 hr in presence of 3H-SAM by topcount plate reader analysis.
Test [11] concerns the target T6, Protein arginine N-methyltransferase 1 (Homo sapiens, UniProt Q99873). Nature of the test: Inhibition of PRMT1 (unknown origin) incubated for 1 hr in presence of 3H-SAM by topcount plate reader analysis.
The next test concerns the target PRMT5/MEP50 complex (Homo sapiens, UniProt O14744). Nature of the test: Inhibition of PRMT5/MEP50 (unknown origin) incubated for 1 hr in presence of 3H-SAM by topcount plate reader analysis. Type of test: protein-complex assay.
Test [12] addresses T3, Protein arginine N-methyltransferase 8. Nature of the test: Inhibition of PRMT8 (unknown origin) incubated for 1 hr in presence of 3H-SAM by topcount plate reader analysis.
For test [13], the target named is T6, Protein arginine N-methyltransferase 1. In words: Inhibition of PRMT1 (unknown origin).

T2 sequence (Q96LA8 whole entry): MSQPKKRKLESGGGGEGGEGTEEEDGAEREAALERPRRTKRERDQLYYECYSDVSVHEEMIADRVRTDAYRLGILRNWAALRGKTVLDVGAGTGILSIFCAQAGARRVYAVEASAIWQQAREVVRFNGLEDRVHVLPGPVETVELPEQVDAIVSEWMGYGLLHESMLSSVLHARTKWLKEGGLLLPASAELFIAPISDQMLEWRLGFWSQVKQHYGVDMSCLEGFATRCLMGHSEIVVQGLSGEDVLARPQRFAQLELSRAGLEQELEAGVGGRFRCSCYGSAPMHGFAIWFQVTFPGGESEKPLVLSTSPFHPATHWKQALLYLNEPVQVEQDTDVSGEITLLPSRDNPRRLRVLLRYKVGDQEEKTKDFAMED
T6 sequence (Q99873 whole entry): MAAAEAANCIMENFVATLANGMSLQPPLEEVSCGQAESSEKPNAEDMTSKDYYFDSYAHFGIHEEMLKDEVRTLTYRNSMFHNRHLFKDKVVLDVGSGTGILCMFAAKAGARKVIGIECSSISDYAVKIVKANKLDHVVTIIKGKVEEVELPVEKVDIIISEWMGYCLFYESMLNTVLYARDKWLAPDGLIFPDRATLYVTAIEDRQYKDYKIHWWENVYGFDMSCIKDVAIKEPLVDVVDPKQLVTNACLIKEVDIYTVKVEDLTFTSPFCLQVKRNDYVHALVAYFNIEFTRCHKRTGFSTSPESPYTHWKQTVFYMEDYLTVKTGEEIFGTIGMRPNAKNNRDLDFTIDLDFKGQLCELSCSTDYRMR
Chain of PRMT5/MEP50 complex (O14744 whole entry): as the sequence (O14744 whole entry) above
Chain of PRMT5/MEP50 complex (Q9BQA1 whole entry, further chain): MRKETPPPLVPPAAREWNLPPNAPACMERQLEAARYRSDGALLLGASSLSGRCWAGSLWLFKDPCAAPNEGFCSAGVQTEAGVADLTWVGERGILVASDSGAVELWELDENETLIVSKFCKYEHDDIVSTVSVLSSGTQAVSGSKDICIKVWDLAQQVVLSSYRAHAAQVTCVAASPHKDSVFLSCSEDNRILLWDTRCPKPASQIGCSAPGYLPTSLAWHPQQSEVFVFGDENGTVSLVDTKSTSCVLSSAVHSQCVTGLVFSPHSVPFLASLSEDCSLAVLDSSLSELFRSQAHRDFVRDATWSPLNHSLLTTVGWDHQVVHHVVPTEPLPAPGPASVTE

In general, IC50 refers to the concentration that inhibits the measured activity by half. For the molecule `N=C(NCCSC[C@H]1O[C@@H](n2cnc3c(N)ncnc32)[C@H](O)[C@@H]1O)Nc1ccccc1Br`, the 50% inhibitory concentration (IC50) in [1] came out at 5.05 nM; in [2], 18.2 nM; in test [3], 30.5 nM; in [4] it was 32.1 nM; in [5], 321 nM; in test [6] it was 555 nM.
For `Nc1ncnc2c1ncn2[C@@H]1O[C@H](CSCCCCNCc2cccc(-c3ccc(Cl)cc3)c2)[C@@H](O)[C@H]1O`, the 50% inhibitory concentration (IC50) in [7] is 1500 nM; in [8], 1600 nM; in [9], 140 nM; in test [10], below 2.5 nM; in [11], 1200 nM; on PRMT5/MEP50 complex it was 150 nM. For the same molecule, the concentration for half-maximal inhibition (IC50) in test [12] came out at 7000 nM.
In the case of `Nc1nc2cc(CC[C@H]3C[C@@H](n4ccc5c(N)ncnc54)[C@H](O)[C@@H]3O)ccc2cc1Br` [ONAMETOSTAT], the half-inhibitory concentration (IC50) in test [1], in [3], in test [13], in [4], in test [5] and in [6] was above 10000 nM in each case.
